The structures appear in SMILES notation.

With `O=C(c1ccnc(Cl)c1)N1CC(c2ccc(F)cc2)C2(CCN(C/C=C/c3ccc(Cl)cc3)CC2)C1` (stereo not given), the melting point is 79 to 81 °C. Next, `CCc1nc2c(nc1O)CCCC2`: 152 to 153 °C; `O=C(NCC(F)(F)F)c1cccc(-c2nc(=O)c3ccccc3s2)n1`: 243 to 244 °C. Next, `COc1cc(C(=O)CCCN2CCC(OC(=O)c3cc(Cl)c(N)c4c3OCCC4)CC2)cc(OC)c1OC`: 113 °C; `O=C(O)CCCCCNC(=O)OCC1c2ccccc2-c2ccccc21`: 116 °C. Consider `Cc1ccc([N+](=O)[O-])cc1Nc1nnn[nH]1`, for which the melting point was in the range of 245 to 249 °C.

In the case of `O=c1[nH]c2ccc(C3=NOC(CN4CCC(c5ccc(F)cc5)CC4)C3)cc2o1` (stereo not given), the melting point was 214 to 217 °C. Next, `CCOCc1nc2cnc3cc(-c4ccccc4)ccc3c2n1CC1CCN(C(=O)OC(C)(C)C)CC1`: 166 to 167 °C; `Cc1cccc(SCc2ccc3nc(NC4CCN(C)CC4)n(Cc4nc(C)ccc4O)c3c2)c1`: 202 °C; `Nc1c(F)c(N2CCNCC2)cc2c1c(=O)c(C(=O)O)cn2C1COC1`: 244 to 246 °C. Next, `CC(C)(C)c1cc(-n2nc3ccc(C(F)(F)F)cc3n2)c(O)c(C(C)(C)C)c1`: 131 to 133 °C; `O=C(NC1CCCCC1)C(Br)c1ccccc1` (stereo not given): 126 to 127 °C.

`Cc1ccc(N2C(=O)C(O)=C(C(=O)c3ccc(C(C)C)cc3)C2c2ccc(Cl)cc2)nn1` (stereo not given) displayed a melting point of 258 to 260 °C. As to `Sc1nc2cc(Cl)c(Cl)cc2s1`, the melting point lay in the range of 234 to 236 °C. The compound `CC(C)n1nc(-c2c(-c3ccccc3)nn3ccc(C(=O)NC4CC4)cc23)ccc1=O` displayed a melting point of 184 to 185 °C. The result for `COc1ccc(F)cc1-c1cccc(-n2cnc(-c3nc(C)no3)c2)c1` reads 153 to 158 °C; that for `O=[N+]([O-])c1cc(Cl)c(CCl)c(Cl)c1`, 37 to 39 °C; that for `CCCCc1nc2c(N)nc3cc(Br)ccc3c2n1CC(C)C`, 198 to 200 °C. The result for `COc1ccc2c(c1)C(C(=O)O)=Cc1ccccc1O2` reads 150 °C. The result for `O=C(NC(=O)C(Cl)CCl)Nc1cccc(Cl)c1Cl` (stereo not given) reads 195 to 196 °C; that for `Cc1c(C(=O)Nc2ccc(N3CCN(C4CCOCC4)CC3)c(C#N)c2)cnn1-c1ccc(F)cc1`, 240 °C; that for `COc1ccc(-c2cc3c(n2CCN(C)C)CCCC3)cc1`, 81 to 82 °C. With `N#CCC1CCN(c2ccc(N3C[C@@H](Cn4cc(C#N)nn4)OC3=O)cc2F)CC1`, the melting point is 200 to 202 °C. In turn, `COC(=O)c1ccc(OC)c(N(C(C)=O)c2cc(Cl)cc(Cl)c2)c1` gave a melting point of 100 to 101 °C. The result for `CN1C(=N)c2c(Cl)cccc2S1(=O)=O` reads 92.5 to 95 °C; that for `COc1c(C)c2c(c(N)c1C/C=C(\C)CCC(=O)O)C(=O)OC2`, 130 to 131 °C. Next, `CCOC(=O)CNC(=O)c1ccc(N)cc1`: 93 to 94 °C; `O=C(CNc1ccc2[nH]c(=O)[nH]c2c1)N1CCC(Oc2ccc(Cl)cc2)CC1`: 201 to 205 °C; `CO/C(=C\C=C\c1cc2ccccc2[nH]1)C(=O)NCc1ccccc1`: 204 to 205 °C. Consider `O=C1OCc2ccccc2C1=NO`, for which the melting point lay in the range of 181 to 185 °C.

The compound `Cn1c(=O)c(=O)[nH]c2cccnc21` had a melting point of 238 to 239 °C.

In the case of `O=[N+]([O-])c1ccc(Cl)cc1Nc1cccc(Cl)c1`, the melting point worked out at 112 °C.

Compound `CCOCCNc1nc(Cl)nc(N[C@@H](C)c2ccccc2)n1` yielded a melting point of 103 °C. `Cn1cc(-c2ccccc2)c(=O)c(-c2cc(C(F)(F)F)ccc2Cl)c1` displayed a melting point of 150 to 152 °C. For the compound `Oc1ccc(-c2c(Cl)c3cc(O)ccc3n2Cc2ccc(OCCN3CCCCCC3)cc2)cc1`, the melting point is 196 to 198 °C. Turning to `CC(=O)N1CC(CCN2CC=C(c3ccc(Cl)cc3)CC2)c2ccccc21` (stereo not given), the melting point was in the range of 116 to 118 °C. The result for `COc1cc(N)c(Cl)cc1-c1noc(C2CCN(CC3CCCO3)CC2)n1` (stereo not given) reads 148 °C; that for `CN1C(=O)Cc2cc(C3=NNC(=O)C4CC34)ccc21` (stereo not given), 265 to 267 °C. Next, `CCCCCCCCCCCCCCCCC[C@@H](O)CC(=O)OC`: 64 to 64.5 °C; `Cc1cc(-c2ccc(C(F)(F)F)cc2)nc(-n2cnc(-c3cccc(S(N)(=O)=O)c3)c2)n1`: 186 °C; `CS(=O)(=O)Nc1ccc2c(c1)C(=O)C(Br)CC2` (stereo not given): 87 to 92 °C. Next, `COCN1C(C)=C(C(=O)O)C(c2ccccc2)C(C(=O)OCOC(=O)C(C)(C)C)=C1C` (single isomer, unassigned; (+)): 121 to 122 °C; `Cc1ccc(-c2cc3c(s2)CCCCC3=O)cc1`: 82 to 84 °C; `O=C(NC(CS)Cc1ccccc1)N1CCCC1` (single isomer, unassigned; (+)): 92 to 94 °C. `CC(C)(C)NC(=O)c1nn(-c2ccc(F)cc2Cl)c2c1C1CCC2C1` (stereo not given) showed a melting point of 122 to 124 °C. As to `CN1C(=O)CC[C@]2(C)c3ccc(-c4cc5ccccc5s4)cc3CC[C@@H]12`, the melting point is 247 to 250 °C. The result for `COc1ccc(CCNCC(O)c2cccc(Cl)c2)cc1` (stereo not given) reads 101 to 103 °C; that for `NC(=O)c1c[nH]c2ccc([N+](=O)[O-])cc12`, 284 to 288 °C; that for `CCCCCNC(=O)N(C)c1cccc(-c2ccc(C=C(C)C(=O)O)cc2OCCCC)c1`, 87 to 89 °C. The result for `CC1CCCCN1C(=O)C=Cc1ccc(C(F)(F)F)cc1` (stereo not given) reads 88 to 89 °C; that for `Cc1cc(-n2cc(-c3ccc(S(C)=O)cc3)nc2C)cc2ccc(=O)[nH]c12` (stereo not given), 313 to 315 °C. Compound `CCCNC(=O)NCCc1c[nH]c2ccc(OC)cc12` registered a melting point of 79 to 80 °C. The result for `CC(C)(CCCC(=O)O)c1ccc2c(c1)C(=O)c1cc(C(C)(C)CCCC(=O)O)ccc1C2=O` reads 145 to 147 °C.

Take `OCc1cnn(-c2ccc(OC(F)(F)F)cc2)c1`: the melting point fell in the range of 73 to 74 °C.

The compound `CC(C)(C)OC(=O)n1cc(C(=O)C2CSC(c3cccnc3)N2C(N)=O)c2ccccc21` (stereo not given) gave a melting point of 141 to 143 °C. The result for `CN1C(=O)CC2(CNC(=O)C2)C1=O` (stereo not given) reads 201 to 204 °C; that for `COCOc1cc2c(cc1-c1cc(C=CC(=O)O)ccc1O)C(C)(C)CCC2(C)C`, 101 to 103 °C; that for `CC#CC(O)(Cn1cncn1)c1ccc(Oc2ccc(Cl)cc2)cc1C(F)(F)F` (stereo not given), 137 °C. For `COC(=O)c1cc(Cn2cncc2C)cc(C(C)(C)C#N)c1`, the melting point was 101 to 104 °C. Compound `C=CNC(=O)n1sc(OCC)nc1=O` registered a melting point of 123 °C. As to `OC(CN1CCC(C(O)c2ccccc2)CC1)c1ccccc1` (stereo not given), the melting point was determined as 104 °C. As for `CN(C)c1ccc(CN2C(=O)C3(COc4cc5c(cc43)OCCO5)c3ccccc32)nc1` (stereo not given), the melting point is 229 to 236 °C. Next, `O=[N+]([O-])c1cc(Cl)cc(C(Cl)c2cc(Cl)cc([N+](=O)[O-])c2O)c1O`: 180 °C; `CN1CCN(c2nc(-c3ccccc3Cl)c3cc([N+](=O)[O-])ccc3n2)CC1`: 204 °C; `CCc1cc(Oc2ccc([C@@H]3OC(=O)N[C@@H]3Cc3cccc(OC(F)(F)C(F)F)c3)cc2)ccc1Cl` (racemic): 100 to 101 °C. The result for `COc1cc(NC(=O)c2cccc(CCl)c2)cc(OC)c1OC` reads 138 to 145 °C. The result for `CNC1(Cc2ccccc2)C(=O)Nc2ccc(Cl)cc21` (stereo not given) reads 196 °C; that for `Cc1nnc2n1-c1ccccc1C(c1ccccc1Cl)OC2C` (stereo not given), 176 to 178 °C.

Regarding `c1ccc2c(c1)-c1sccc1C2Cc1ccncc1` (stereo not given), the melting point was 91 to 93 °C.

On to `CCc1c(C(N)=O)sc(SC)c1-c1oncc1C`, for which the melting point lay in the range of 93.5 to 94.5 °C. The result for `O=C(CCc1ccc(OCc2ccccc2)cc1)c1ncc(-c2ccccn2)o1` reads 99 to 100 °C; that for `O=C(O)CCC/C=C/c1nn(-c2ccc([N+](=O)[O-])cc2)c2c1CCC2`, 163 to 164 °C; that for `CC(=O)Nc1cc(C(=O)O)cc(C(F)(F)F)c1`, 194 to 220 °C. Next, `C=CCCC(F)c1cc(C2(c3ccc(OC(F)F)cc3)N=C(N)N(C)C2=O)ccc1F` (stereo not given): 50 to 55 °C; `CC(C)c1ccc(N)nn1`: 131 to 132 °C; `CCc1ccc2c(c1)Cc1cc(C(C)=O)ccc1-2`: 120 to 122 °C. Next, `Fc1cc(N2CCN(CCc3coc4ccc(F)cc34)CC2)c2ncccc2c1`: 55 °C. In the case of `CNC(=O)N(O)C(C)C#Cc1ccc(C)cc1` (stereo not given), the melting point was 137 to 138 °C. Next, `Cc1ccc(S(=O)(=O)C2=C(C(=O)OCC(C)C)C(=O)C=C(C(=O)OCC(C)C)C2=O)cc1`: 112 to 114 °C. In the case of `CC(C#N)(C(O)c1ccc(Cl)cc1Cl)n1cncn1` (stereo not given), the melting point lay within 164 to 168 °C.

On to `COc1ccc(C=CC(=O)C2CC2)cc1OC`, for which the melting point lay in the range of 89 to 91 °C. Next, `CCn1c(=O)ccc2cnc(Nc3ccc(OC)c(F)c3)nc21`: 196 to 198 °C; `CC(C)(C)OC(=O)NCCc1ccnc(C#N)c1`: 70.5 to 71.2 °C; `COC(=O)c1cc2cc(OCc3cccnc3)ccc2s1`: 126 to 127 °C.

In turn, `Cc1ccccc1C(=O)CN1C(=O)C(NC(=O)Nc2cccc(C(=O)NS(C)(=O)=O)c2)CN(c2ccccc2)c2ccccc21` (stereo not given) had a melting point of 210 to 220 °C. The result for `COc1ccc(CSc2ncn(Cc3cc4c(cc3Cl)OCO4)c2C(=O)O)cc1` reads 195 °C; that for `Cc1nc2c(n1C)CC(C(=O)N(C)C)CC2=O` (stereo not given), 190 to 194 °C. The result for `O=C(O)c1cccnc1Nc1cccc([N+](=O)[O-])c1` reads 262 to 264 °C. Next, `CC(C)Cc1nn(C)c(=O)c2cc(Cc3c(F)cccc3Cl)sc12`: 85 to 86 °C. As for `COc1nnc(C)c(-c2ccc(Cl)nc2)c1-c1c(F)cc(F)cc1F`, the melting point was in the range of 123 to 124 °C.

(Values after a melting point compilation (Tetko et al.; mined from patent text by program, amines drawn as free bases though some values may be those of a salt).)
